Experiments:
[1] = system: GLI1 mRNA in PC-3 cells; test: Real time PCR of GLI1 mRNA in PC-3; type: cell-based, human; conditions: 48 hrs
Method: (§1) Cells were lysed for RNA extraction after 48 or 72 hours of treatment. Total RNA from cultured cells or tumor tissue was isolated using the GeneElute miniprep kit (Sigma-Aldritch) following the manufacturer^'s instructions. cDNA was synthesized from the isolated mRNA using the Retroscript kit (Ambion), and real-time PCR was carried out using the SYBR Green PCR master mix (Stratagene) according to the manufacturer^'s instructions with an Mx3000P cycler (Stratagene). The relative concentrations of cDNA present in each sample were calculated by the MxPro software (Stratagene), normalized for GAPDH (mRNA from cells) or GUS (mRNA from tumors). For real time PCR primer sequences see Table 6. For the tumor tissue real time PCR, previously described human and mouse specific primers against GUSB, PTCH1 and GLI1were used.

[2] = system: PANC-1, SUIT-2, PC-3 and FEMX cells; test: In vitro antiproliferative assay (MTS), tumor cell lines; type: cell-based, human; conditions: 10 µM, 4 day exposure; across PANC-1, SUIT-2, PC-3 and FEMX
Method: (§2) Cells were plated at a density of 3000 (THLE-2 and PC-3) and 1000 (PANC-1, SUIT-2 and FEMX) cells per well (on the basis of their growth rate) in 200 µl of medium in a 96-well plate. Medium was changed daily, and after four days, the assay was read using a MTS kit (Promega) according to the instructions of the manufacturer. Graphs display average of percent growth with standard deviation (n = 8).

[3] = system: PANC-1 cells; test: In vitro antiproliferative assay (MTS), PANC-1; type: cell-based, human; conditions: 5 µM, 4 day
Method: as §2

[4] = system: GLI1 mRNA in SUIT-2 cells; test: Real time PCR of GLI1 mRNA in SUIT-2; type: cell-based, human; conditions: 48 hrs
Method: as §1

[5] = system: Gli1 protein in Sufu−/− MEF; test: Gli1 immunostaining of Sufu−/− MEF; type: cell-based, mouse; conditions: 20 µM, 48 hours
[6] = system: Gli1 mRNA expression in Sufu−/− MEF; test: Real time PCR of Gli1 mRNA in Sufu−/− MEF; type: cell-based, mouse; conditions: 72 hours
Method: as §1

[7] = system: Hh pathway in Shh-L2 cells; test: Hh reporter assay in Shh-L2 cells; type: cell-based, mouse; conditions: Mus musculus; pathway inhibition in Shh induced Shh-L2 cells, 48 hours treatment
Method: Shh-L2 cells were used as a Hh reporter cell line as described previously. Hh signaling was induced by Shh conditioned medium, 200 nM SAG (AH-Diagnostics) and ActOXS (a combination of 5 µM Hydroxycholesterol 20-alfa and 5 µM Hydroxycholesterol 22S (Sigma-Aldrich)). For Shh conditioned medium, Shh-PANC-1 cells were grown to confluence and switched to fresh medium. Shh conditioned medium was harvested after 48 hours, and was diluted to 50% in fresh DMEM before use. The clonal Shh-PANC-1 cell line was generated by stably transducing PANC-1 cells with virus containing medium from HEK293T cells that were transfected using a Virapower Lentiviral expression kit (Invitrogen). The vector was produced by removing GFP from a pLenti 6.2-vector, and inserting the mouse Shh cDNA sequence.
The calculations were performed with an online calculator using the formula: a exp (−bx) + c at the website; http://www.changbioscience.com/stat/ec50.html

[8] = system: GLI1 mRNA in PANC-1 cells; test: Real time PCR of GLI1 mRNA in PANC-1; type: cell-based, human; conditions: 5 µM, 48 hrs
Method: as §1

SMILES: CS(=O)(=O)c1ccc(C(=O)Nc2ccc(Cl)c(-c3ccccn3)c2)c(Cl)c1 [GDC-0449, reference compound]
- GLI1 mRNA levels, PC-3 [1]: reduced GLI1 mRNA levels
- growth reduction (MTS) [2]: ≤ 30%
- growth (MTS), PANC-1 [3]: reduced growth
- GLI1 mRNA levels, SUIT-2 [4]: reduced GLI1 mRNA levels
- total level of Gli1 in the cells [5]: reduced Gli1 levels in the cells, but to a lesser extent than MS-0022
- inhibitory effect on Hh signaling downstream of Smo in Sufu−/− MEFs [6]: little inhibitory effect
- IC50 [7]: 30 nM
- GLI1 mRNA levels, PANC-1 [8]: without reducing GLI1 mRNA levels

SMILES: CC1=C2C[C@H]3[C@@H](CC=C4C[C@@H](O)CC[C@@]43C)[C@@H]2CC[C@]12O[C@@H]1C[C@H](C)CN[C@H]1[C@H]2C [cyclopamine, reference compound]
- GLI1 mRNA levels, SUIT-2 [4]: reduced GLI1 mRNA levels
- total level of Gli1 in the cells [5]: no significant effect
- inhibitory effect on Hh signaling downstream of Smo in Sufu−/− MEFs [6]: little inhibitory effect
- IC50 [7]: 210 nM

— paper PMC3115942 (PLoS ONE, 2011)
